Data from article PMC8778133 (Pharmaceutics, 2021).
Values after ≈ are worked out from the molar mass of the structure shown. Values joined by “and” are separate entries in the source; they are usually repeats but may differ in a detail not shown here. Equal entries are not always repeated. Where two headings read alike, the source gives them in different places.

Columns and labels:
[1] = Intrinsic dissolution rate, small-scale dissolution assay at single GIT pH values; assay type: physicochemical; details: for % Dissolved at t = 30 min / Dissolution Rate: SD in brackets; for Dissolution Rate: fitting of Equation (1), kdS
Method: Dissolution tests were performed with a small-scale dissolution assay installed in the GlpKaTM titrator. […] Then, 1.5 mL of 0.125 M acetate-phosphate buffer at pH 1.6 was introduced into the vial without wetting the tablet surface. […] The final volume was 15 mL. UV-visible absorption spectra were recorded every 30 s with a fiber-optic probe immersed in the solution. […] Spectral regions where the signal was saturated (A > 1.5) were discarded. Dissolution rate was obtained through the fitting of the first-order Noyes-Whitney exponential equation to the data:(1) [[…]0)) In this equation, [X]t is the weight (g) of compound in solution at a given time (min); […] Dissolution rate is calculated through a refinement process in which S, kd and t0 optimal values are obtained by minimizing the root mean square deviation between the modeled concentrations and the measured ones.

[2] = 4-sector pH dissolution test (pH stepped from 2.0 to 7.4); assay type: physicochemical; details: 4-sector test
Method: To perform the 4-sector dissolution rate determinations, the same procedure was followed, but, after adjusting the initial pH to 2.0 and monitoring dissolution for 30 min at this pH, the pH was automatically raised to the next value by addition of KOH. Then, dissolution was monitored again for 30 more minutes. This stepping procedure was repeated until dissolution in the four sectors was covered.

[3] = pKa determination by potentiometric titration; assay type: physicochemical; details: for pKa: 0.15 M KCl aqueous solution
Method: The sample was pre-alkalinized to pH 12 with 0.5 M standardized KOH. Then, it was titrated with standardized 0.5 M HCl. All titrations were carried out at 0.15 M ionic strength and a temperature of 25 °C, under a nitrogen atmosphere. […] The Debye–Hückel equation was used to obtain the thermodynamic pKa values.

[4] = Solubility by the shake-flask method; assay type: physicochemical; details: for solubility at 24 h: universal buffer
Method: A universal buffer composed of 75 mM trifluoroacetic acid, 25 mM acetic acid, and 25 mM ethylenediamine, adjusted with 1M sodium hydroxide up to pH 7.5, was used (ionic strength, I = 0.1 M). Samples were prepared by adding a weighted amount of solid (enough to obtain saturated solutions) to 2 mL of the buffered solution. After this, solutions were shaken at a controlled temperature (25.0 ± 0.2 °C) for 24 h, but, after 4 h of agitation, the pH was checked and, if necessary, readjusted to the initial value with small amounts of 1 M hydrochloric acid or 1 M sodium hydroxide solution. After the 24 h stirring, samples were left to stand for equilibration for 24 more hours [32, 33, 34]. The pH was measured and phases separated by centrifugation in a Rotanta 460RS centrifuge from Hettich Lab Technology (Tuttlingen, Germany), at a controlled temperature (25 °C) and 3500 rpm for 30 min.
The remaining solid was dried under vacuum for 30 min and stored at 4 °C until XRPD analysis. […] A Shimadzu (Kyoto, Japan) liquid chromatograph, equipped with two LC-10AD pumps and a SPD-10AV detector, was used. Temperature was controlled at 25.0 ± 0.1 °C with a CTO-10AS column oven. The column was a Symmetry C18, with 5 μm particle size and dimensions of 4.6 × 150 mm from Waters (Milford, MA, USA). Mobile phase was composed of 20 mM phosphate buffer at pH 7 (A) and acetonitrile (B). Elution was in gradient mode (time (min), %B: 0,3; 1,3; 5,25; 10,25; 12,3; 15,3). […] To quantify, six standard solutions were prepared in the linear range (5–60 mgL^−1 for both compounds). Standards were dissolved in an acetonitrile/water mixture at a proportion of 25/75 (v/v). In a first attempt, saturated supernatants were injected directly, and, when necessary, they were appropriately diluted in water to ensure that they fit within the range of calibration.

[5] = pH of saturated Norfloxacin solutions in dissolution media (pHx=0 effect test); assay type: physicochemical; details: for pH of saturated solution after 24 h: agitation
Method: However, instead of adding a Norfloxacin tablet, the powder was directly weighted into the vials until saturated solutions of Norfloxacin were obtained. Then, the solutions were allowed to stand under agitation at 25 °C for 24 h. After this, the pH of the solutions was measured again. […] This effect is more evident for the API dissolution than for the cocrystal because the amount of API released in the cocrystal is lower compared to the pure API.

[6] = design: method as in doi:10.1016/0378-5173(90)90130-V, PMID 16307530; details: cited from earlier work
[7] = water, 25 °C and 0 ionic strength, potentiometry, given as ref 37 (authors' unpublished work), read-out: pKa (first)

Final Solid Form ([1]; after dissolution at pH 2.0)	Final Solid Form ([1]; after dissolution at pH 4.0)	Final Solid Form ([1]; after dissolution at pH 5.5)	Final Solid Form ([1]; after dissolution at pH 7.4)	% Dissolved at t = 30 min ([1]; pH 2.0)	Dissolution Rate ([1]; pH 2.0)	% Dissolved at t = 30 min ([1]; pH 4.0)	Dissolution Rate ([1]; pH 4.0)	% Dissolved at t = 30 min ([1]; pH 5.5)	Dissolution Rate ([1]; pH 5.5)	% Dissolved at t = 30 min ([1]; pH 7.4)	Dissolution Rate ([1]; pH 7.4)	pKa [3, 7]	SMILES	other results
Monohydrate	Monohydrate	Monohydrate	Monohydrate	94.4 (1.1) %	2.53 (1.63) μg min^−1	91.2 (0.9) %	0.70 (0.15) μg min^−1	48.0 (12.5) %	0.33 (0.04) μg min^−1	9.6 (1.0) %	0.19 (0.10) μg min^−1		CCn1cc(C(=O)O)c(=O)c2cc(F)c(N3CCNCC3)cc21.Oc1cccc(O)c1 [Norfloxacin–resorcinol cocrystal]	% Dissolved at t = 30 min ([1]; pH 5.5, listed as cocrystal): 48%; % Dissolved at t = 30 min ([1]; pH 7.4, listed as cocrystal): 7%; percentage of the API remaining in the solution ([2]; after pH increased to 7.4 (sudden precipitation)): 80%; percentage of Norfloxacin in the solution ([2]; from pH 2.0 to pH 5.5, 30 min at each pH): ~90%; dissolution in the first sector ([2]; pH 2.0, 30 min): almost complete dissolution
												9.47 ± 0.02	Oc1cccc(O)c1 [Resorcinol, resorcinol]	pKa ([3]; water, 25 °C and 0 ionic strength, potentiometry, given as ref 37 (authors' unpublished work), read-out: pKa (second)): 11.6 ± 0.04
Tetrahydrate	Tetrahydrate	Tetrahydrate	Tetrahydrate	100% and 101.2 (6.3) %	4.16 (0.73) μg min^−1	71% and 71.3 (6.9) %	0.79 (0.03) μg min^−1	23% and 23.0 (5.2) %	0.19 (0.02) μg min^−1	9.4 (1.0) %	0.06 (0.01) μg min^−1	6.35 ± 0.04	CCn1cc(C(=O)O)c(=O)c2cc(F)c(N3CCNCC3)cc21 [Norfloxacin]	solid phase obtained after the shake-flask experiments (XRPD) ([4]; aqueous buffer, 24 h stirring + 24 h standing, 25 °C): tetrahydrate; intrinsic solubility of the zwitterionic form (S0) ([4]; calculated from shake-flask solubility and Equation (7), pKa' at I = 0.1 M, corresponds to tetrahydrate form): 319 ± 19 µg/mL; solubility at 24 h ([4]; pH 7.25, shake-flask, 25 °C, I = 0.1 M, final pH 7.25, n = 3, solid transformed to tetrahydrate, read-out: solubility): 394 ± 18 µg/mL (≈ 1230 µM); solubility at 24 h ([4]; pH 7.5, calculated from shake-flask solubility and Equation (7), pKa' at I = 0.1 M, corresponds to tetrahydrate form, read-out: intrinsic solubility of the zwitterionic form (S0)): 320 ± 20 µg/mL (≈ 1000 µM); percentage of compound in the zwitterionic form ([3]; pH 5.5, species distribution (Figure S12)): around 12%; maximum percentage of the zwitterionic form ([3]; pH 7.5, species distribution from pKa values (Figure S12)): around 90%; pKa (second) ([3]; water, 25 °C and 0 ionic strength, potentiometry, given as ref 37 (authors' unpublished work)): 8.80 ± 0.04; % Dissolved at t = 30 min ([1]; pH 2.0, listed as API): complete; % Dissolved at t = 30 min ([1]; pH 7.4, listed as API): 7%; pH of saturated solution after 24 h ([5]; dissolution medium initially at pH 4.0, 25 °C): 5.8; pH of saturated solution after 24 h ([5]; dissolution medium initially at pH 5.5, 25 °C): 6.2; pH of saturated solution after 24 h ([5]; dissolution medium initially at pH 7.4, 25 °C): 7.4; positive pH increment ([5]; initial pH 4.0): 1.8 units; positive pH increment ([5]; initial pH 5.5): 0.7 units; positive pH increment ([5]; initial pH 7.4): 0 units; oral bioavailability [6]: ~ 40%
